# Assay results from patent US6080746A, “Methods and compositions for the prophylaxis and treatment of cytomegalovirus infections” (priority 1991, dated 2000).
# Assays:
# [1] = test system: CMV; assay: Reduction of CPE in CMV-infected MRC5 cell monolayer cultures (Tables 4 and 5); assay type: cell-based; conditions: Human betaherpesvirus 5, MRC5, read-out: Reduction (%) of CPE by D-2'-CDG at Time of Virus Harvest
# Method: (§1) The effectiveness of racemic 2'-CdG and of D-2'-CdG on CMV yields in MRC5 cell monolayer cultures was determined by a plaque assay with the results set forth in Tables 4 and 5:
# (§2) ^a Drug treatment began immediately following the virus adsorption
# (§3) ^a Drug treatment began immediately following the 1 1/2 hour
# [2] = test system: CMV; assay: CMV yields in MRC5 cell monolayer cultures by plaque assay (Tables 4 and 5); assay type: cell-based; conditions: for CMV Yield: virus control 1.1 × 10^5; for CMV Yield (log10): virus control 5.1
# Method: as §1, §2, §3
# [3] = test system: MRC5 cells; assay: Drug cytotoxicity (gross morphology) in MRC5 cell monolayer cultures (Tables 4 and 5); assay type: cell-based, human
# Method: as §1, §2, §3
# [4] = test system: CMV; assay: MIC50 against CMV in MRC5 cells; assay type: cell-based
# [5] = test system: CMV; assay: ED50 antiviral efficacy against CMV in human foreskin fibroblast cells; assay type: cell-based; conditions: Human betaherpesvirus 5, read-out: ED50 (median dose at which 50% antiviral efficacy against CMV is produced)
# Method: The ED50 value (median dose at which 50% antiviral efficacy against CMV is produced) was 0.06 μg/mL for D-2'-CdG and 0.20 for DHPG in human foreskin fibroblast cells.
# [6] = test system: human CMV; assay: Intravitreal human CMV infection in New Zealand white rabbits, intravitreal treatment; assay type: in vivo; conditions: 100 μg in 100 μl intravitreal, 48-hour intervals from day 4
# From the text: The symptoms included vitritis, iritis, retinal pathology (micro hemorrhages and focal necrosis of the retinal
# surface), corneal stromal haze and neovascularization, and corneal endothelial pigmented precipitates. […] The intravitreal route offers some significant advantages for intraocular infections including: 1) delivery of maximal concentrations of drug to the desired site of action; 2) increased potential for sustained release (i.e. longer half-life, T1/2) of the drug; and 3) reduced potential for systemic toxicity.
# [7] = test system: human cytomegalovirus (strain AD 169); assay: Inhibition of human cytomegalovirus in MRC5 cells by plaque reduction assay (reduction of CPE, MIC50; Table 1); assay type: cell-based; conditions: Human betaherpesvirus 5, MRC5, treatment 0 hr postinfection, read-out: Reduction (%) of CPE at Time of Harvest
# From the text: (§4) In each case, drug treatment began 0 hr. postinfection.
# [8] = test system: human cytomegalovirus (strain AD 169); assay: CMV yield in MRC5 cells (Table 1); assay type: cell-based
# From the text: as §4
# [9] = test system: human diploid embryonic lung cells (MRC5); assay: Drug cytotoxicity (gross morphology) in MRC5 cells (Table 1); conditions: 320 μg/ml
# From the text: Also evaluated under the same conditions were prior art drugs Ara-A and ganciclovir (DHPG). In each case, drug treatment began 0 hr. postinfection.
# [10] = test system: HCMV; assay: Virus yield-reduction assay, combination with DHPG on HCMV replication in MRC5 cells (Table 2); assay type: cell-based, human CMV; conditions: (±)-2'-CDG 0
# From the text: Effect of Combination Treatment^a With (±)-2'-CDG and
# DHPG on HCMV Replication in MRC5 Cells
# (Virus Yield-Reduction Assay)
# [11] = test system: cytomegalovirus; conditions: in vivo; cited from earlier work
# [12] = test system: human CMV; assay: Intravitreal human CMV infection in pigmented rabbits, intravitreal treatment; assay type: in vivo; parameters: key to retinal pathology level: 1-2+: focal hemmorhages and development of localized retinal necrosis; key to Vitritis scores: 1-2+: mild; key to vitritis: 2+: mild vitritis
# Method: Animal models for human CMV disease were prepared by inoculating human CMV by intravitreal injection into pigmented rabbits. The animals developed in 3-4 days post inoculation a mild to moderate vitritis, focal retinal microhemorrhages, and localized retinal necrosis.
# Dosages of 2'-CdG of various amounts in 100 μl of sterile water were injected into rabbit models beginning on day 3 post inoculation and repeated on day 5 and day 7N.
# Development and resolution of HCMV intraocular disease in the 80 μg therapy group was similar to disease development in the 100 μg therapy group as described below.
# Seven pigmented rabbits were infected with human CMV by intravitreal injection. Beginning on day 3 PI, these animals received 3 successive injections of 100 μg 2'CdG in 50 μl on day 3, 4, and 5 PI. […] Vitritis scores in these animals were 1-2+ (mild) and retinal pathology was reduced to 1-2+ level (focal hemmorhages and development of localized retinal necrosis). […] Initial virus recovery assays indicate that human CMV titers were reduced to 0 or 1 log by day 2 post therapy.
# [13] = test system: CMV; assay: Intravitreal injection for a week, tolerability and antiviral effect; assay type: in vivo; conditions: 100 μg/kg every 48 hours intravitreally for a week
# From the text: Effective dosages may be administered also in sustained release dosage form.
# [14] = test system: human CMV; assay: Intravitreal human CMV infection in pigmented rabbits, intravitreal treatment; assay type: in vivo; parameters: key to vitritis, maximum development: 1-2+: mild; conditions: 80 μl (so in the source) of 2'-CdG
# [15] = 40 μg per 100 μl injection, intravitreal
# [16] = 100 μg in 50 μl daily, day 3, 4 and 5 PI
structure (smiles),measurement,setting,value
Nc1nc2c(ncn2[C@@H]2C[C@H](CO)[C@@H](O)C2)c(=O)[nH]1 [D-2'-CdG],inhibition at 0.1 µM,"[1]; Table 5, 0.1 μM",0%
same,inhibition at 0.32 µM,"[1]; Table 5, 0.32 μM",0%
same,inhibition at 1 µM,"[1]; Table 5, 1.0 μM",10%
same,inhibition at 3.2 µM,"[1]; Table 5, 3.2 μM",10%
same,inhibition at 10 µM,"[1]; Table 5, 10 μM",25%
same,inhibition at 32 µM,"[1]; Table 5, 32 μM",50%
same,inhibition at 100 µM,"[1]; Table 5, 100 μM",50%
same,CMV Yield,"[2]; Table 5, 0.1 μM",3.8 × 10^4 PFU/mL
same,CMV Yield (log10),"[2]; Table 5, 0.1 μM",4.6 log10 PFU/mL
same,CMV Yield,"[2]; Table 5, 0.32 μM",1.4 × 10^4 PFU/mL
same,CMV Yield (log10),"[2]; Table 5, 0.32 μM",4.1 log10 PFU/mL
same,CMV Yield,"[2]; Table 5, 1.0 μM",5.4 × 10^3 PFU/mL
same,CMV Yield (log10),"[2]; Table 5, 1.0 μM",3.7 log10 PFU/mL
same,CMV Yield,"[2]; Table 5, 3.2 μM",8.4 × 10^2 PFU/mL
same,CMV Yield (log10),"[2]; Table 5, 3.2 μM",2.9 log10 PFU/mL
same,CMV Yield,"[2]; Table 5, 10 μM",2 × 10^1 PFU/mL
same,CMV Yield (log10),"[2]; Table 5, 10 μM",1.3 log10 PFU/mL
same,CMV Yield,"[2]; Table 5, 32 μM",0 PFU/mL
same,CMV Yield,"[2]; Table 5, 100 μM",0 PFU/mL
same,Drug Cytotoxicity (gross morphology),"[3]; Table 5, 0.1 μM",0
same,Drug Cytotoxicity (gross morphology),"[3]; Table 5, 0.32 μM",0
same,Drug Cytotoxicity (gross morphology),"[3]; Table 5, 1.0 μM",0
same,Drug Cytotoxicity (gross morphology),"[3]; Table 5, 3.2 μM",0
same,Drug Cytotoxicity (gross morphology),"[3]; Table 5, 10 μM",0
same,Drug Cytotoxicity (gross morphology),"[3]; Table 5, 32 μM",v. sl. toxicity
same,Drug Cytotoxicity (gross morphology),"[3]; Table 5, 100 μM",slight toxicity
same,Drug Cytotoxicity (gross morphology),"[3]; Table 5, 320 μM",toxic
same,IC50,[4]; Human betaherpesvirus 5,< 0.029 µg/mL
same,MIC50 relative to the MIC50 of DL-2'-CdG,[4]; same conditions,about half (or less)
same,EC50,[5],0.06 µg/mL
same,clinical outcome compared with ganciclovir (DHPG),[6],clinically better than treatment with ganciclovir (DHPG)
same,"development of retinal pathology, severity of vitritis and iritis vs placebo",[6],effective in reducing the development of retinal pathology and in reducing the severity of the vitritis and iritis
"Nc1nc(O)c2ncn(COC(CO)CO)c2n1 [DHPG, dihydroxy propoxymethyl guanine, reference compound]",inhibition at 0.1 µg/mL,[7]; 0.1 μg/ml,0%
same,inhibition at 0.32 µg/mL,[7]; 0.32 μg/ml,5%
same,inhibition at 1 µg/mL,[7]; 1.0 μg/ml,30%
same,inhibition at 3.2 µg/mL,[7]; 3.2 μg/ml,60%
same,inhibition at 10 µg/mL,[7]; 10 μg/ml,95%
same,inhibition at 32 µg/mL,[7]; 32 μg/ml,100%
same,inhibition at 100 µg/mL,[7]; 100 μg/ml,100%
same,inhibition at 320 µg/mL,[7]; 320 μg/ml,100%
same,CMV Yield,"[8]; 0.1 μg/ml, virus control 5.5 (DHPG 5.3)",4.7 log10 CCID50 /ml
same,CMV Yield,"[8]; 0.32 μg/ml, virus control 5.5 (DHPG 5.3)",4.6 log10 CCID50 /ml
same,CMV Yield,"[8]; 1.0 μg/ml, virus control 5.5 (DHPG 5.3)",3.6 log10 CCID50 /ml
same,CMV Yield,"[8]; 3.2 μg/ml, virus control 5.5 (DHPG 5.3)",2.3 log10 CCID50 /ml
same,CMV Yield,"[8]; 10 μg/ml, virus control 5.5 (DHPG 5.3)",1.0 log10 CCID50 /ml
same,CMV Yield,"[8]; 32 μg/ml, virus control 5.5 (DHPG 5.3)",0 log10 CCID50 /ml
same,CMV Yield,"[8]; 100 μg/ml, virus control 5.5 (DHPG 5.3)",0 log10 CCID50 /ml
same,CMV Yield,"[8]; 320 μg/ml, virus control 5.3",0 log10 CCID50 /ml
same,Drug Cytotoxicity (gross morphology),[9],sl. toxicity
same,Reduction in CMV Yield,[10]; DHPG 1.0 μM,0.5 Log10 PFU/ML
same,Reduction in CMV Yield,[10]; DHPG 3.2 μM,1.3 Log10 PFU/ML
same,Reduction in CMV Yield,[10]; DHPG 10.0 μM,1.8 Log10 PFU/ML
same,EC50,[5],0.2 µg/mL
same,toxicity,[11],dose-limiting toxicity
Nc1nc2c(ncn2[C@@H]2C[C@H](CO)[C@@H](O)C2)c(=O)[nH]1 [2'-CdG],Retinal necrosis at sacrifice,[12]; [15],evident in all animals at sacrifice
same,retinal hemorrhages,[12]; [15],focal retinal hemorrhages
same,vitritis,[12]; [15],2+
same,controlling the development of disease,"[12]; 40 μg per 100 μl injection, intravitreal, from day 3 post inoculation",moderately effective in controlling the development of disease
same,Vitritis scores,[12]; [16],1-2+
same,human CMV-induced vitritis and retinal pathology (preliminary),[12]; [16],effective in reducing the development of human CMV-induced vitritis and retinal pathology
same,progressive disease by day 7 post inoculation,[12]; [16],had not developed the progressive disease
same,retinal pathology level,[12]; [16],1-2+
same,progressive disease,[12]; 2'CdG at two day intervals,progressive disease that is observed
same,moderate to severe retinal necrosis and detachment,[12]; lower concentration 2'CdG therapies,observed in the lower concentration 2'CdG therapies
same,antiviral effectiveness,[13],antivirally effective
same,tolerability,[13],well tolerated
same,development of vitritis and of retinal pathology,[14]; intravitreal,effective in reducing the development of vitritis (1-2+ maximum development) and in altering the observed development of retinal pathology
same,"vitritis, maximum development",[14]; intravitreal,1-2+
same,Retinal blood vessel engorgement and focal microhemorrhages,"[14]; days 3, 4 and 5 post inoculation",Retinal blood vessel engorgement was evident and focal microhemorrhages were present
